# Where two headings read alike, the source gives them in different places.
# Legend:
# Experiment in all cases: Ambit kinase profiling, competition binding
# CDK3 = target: T1, CDK3 (Homo sapiens, UniProt Q00526); settings: for % Competition: 10 µM
# T1 construct: purchased Ambit Biosciences (KINOMEscan)
# Experimental: (§1) Also included in the kinase profile are four isoforms of PKC (δ, ε, η, θ) and eight isoforms of CAMKs (CAMKIα, δ, γ; CAMKIIα, β, δ, γ; CAMK4).
# (§2) The global kinase profiling experiment was performed by Ambit Biosciences.
# EPHA3 = target: T2, EPHA3 (Homo sapiens, UniProt P29320)
# T2 construct: purchased Ambit Biosciences (KINOMEscan)
# T2 sequence (P29320 21-983): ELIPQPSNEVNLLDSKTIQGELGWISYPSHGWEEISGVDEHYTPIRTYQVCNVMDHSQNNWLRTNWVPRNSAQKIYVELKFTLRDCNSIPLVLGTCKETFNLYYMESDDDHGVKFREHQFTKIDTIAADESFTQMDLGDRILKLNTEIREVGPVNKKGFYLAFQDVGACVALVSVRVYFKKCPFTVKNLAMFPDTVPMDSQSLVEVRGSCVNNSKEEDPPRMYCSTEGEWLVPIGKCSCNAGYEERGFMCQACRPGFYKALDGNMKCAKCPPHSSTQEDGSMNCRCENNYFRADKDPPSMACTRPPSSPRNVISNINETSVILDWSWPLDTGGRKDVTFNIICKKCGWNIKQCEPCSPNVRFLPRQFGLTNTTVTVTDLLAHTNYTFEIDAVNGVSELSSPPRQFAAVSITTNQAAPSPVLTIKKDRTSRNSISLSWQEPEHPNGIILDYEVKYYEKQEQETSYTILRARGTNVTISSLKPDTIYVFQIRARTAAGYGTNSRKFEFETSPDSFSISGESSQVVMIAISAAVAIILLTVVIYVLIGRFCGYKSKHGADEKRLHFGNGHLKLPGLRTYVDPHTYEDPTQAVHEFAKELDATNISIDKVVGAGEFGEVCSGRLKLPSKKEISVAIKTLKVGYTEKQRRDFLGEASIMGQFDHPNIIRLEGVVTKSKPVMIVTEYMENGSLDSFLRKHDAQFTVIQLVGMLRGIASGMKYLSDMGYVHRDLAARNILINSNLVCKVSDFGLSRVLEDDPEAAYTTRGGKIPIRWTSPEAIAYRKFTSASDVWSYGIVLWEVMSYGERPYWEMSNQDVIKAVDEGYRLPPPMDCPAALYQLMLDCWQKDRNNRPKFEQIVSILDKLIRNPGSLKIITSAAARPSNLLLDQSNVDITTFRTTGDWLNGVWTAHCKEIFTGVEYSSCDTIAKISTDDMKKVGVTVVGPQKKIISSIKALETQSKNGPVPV
# Experimental: as §1, §2
# ROS1 = target: T3, ROS1 (Homo sapiens, UniProt P08922)
# T3 construct: purchased Ambit Biosciences (KINOMEscan)
# Experimental: as §1, §2
# STK36 = target: T4, STK36 (Homo sapiens, UniProt Q9NRP7)
# T4 construct: purchased Ambit Biosciences (KINOMEscan)
# T4 sequence (Q9NRP7 1-1315): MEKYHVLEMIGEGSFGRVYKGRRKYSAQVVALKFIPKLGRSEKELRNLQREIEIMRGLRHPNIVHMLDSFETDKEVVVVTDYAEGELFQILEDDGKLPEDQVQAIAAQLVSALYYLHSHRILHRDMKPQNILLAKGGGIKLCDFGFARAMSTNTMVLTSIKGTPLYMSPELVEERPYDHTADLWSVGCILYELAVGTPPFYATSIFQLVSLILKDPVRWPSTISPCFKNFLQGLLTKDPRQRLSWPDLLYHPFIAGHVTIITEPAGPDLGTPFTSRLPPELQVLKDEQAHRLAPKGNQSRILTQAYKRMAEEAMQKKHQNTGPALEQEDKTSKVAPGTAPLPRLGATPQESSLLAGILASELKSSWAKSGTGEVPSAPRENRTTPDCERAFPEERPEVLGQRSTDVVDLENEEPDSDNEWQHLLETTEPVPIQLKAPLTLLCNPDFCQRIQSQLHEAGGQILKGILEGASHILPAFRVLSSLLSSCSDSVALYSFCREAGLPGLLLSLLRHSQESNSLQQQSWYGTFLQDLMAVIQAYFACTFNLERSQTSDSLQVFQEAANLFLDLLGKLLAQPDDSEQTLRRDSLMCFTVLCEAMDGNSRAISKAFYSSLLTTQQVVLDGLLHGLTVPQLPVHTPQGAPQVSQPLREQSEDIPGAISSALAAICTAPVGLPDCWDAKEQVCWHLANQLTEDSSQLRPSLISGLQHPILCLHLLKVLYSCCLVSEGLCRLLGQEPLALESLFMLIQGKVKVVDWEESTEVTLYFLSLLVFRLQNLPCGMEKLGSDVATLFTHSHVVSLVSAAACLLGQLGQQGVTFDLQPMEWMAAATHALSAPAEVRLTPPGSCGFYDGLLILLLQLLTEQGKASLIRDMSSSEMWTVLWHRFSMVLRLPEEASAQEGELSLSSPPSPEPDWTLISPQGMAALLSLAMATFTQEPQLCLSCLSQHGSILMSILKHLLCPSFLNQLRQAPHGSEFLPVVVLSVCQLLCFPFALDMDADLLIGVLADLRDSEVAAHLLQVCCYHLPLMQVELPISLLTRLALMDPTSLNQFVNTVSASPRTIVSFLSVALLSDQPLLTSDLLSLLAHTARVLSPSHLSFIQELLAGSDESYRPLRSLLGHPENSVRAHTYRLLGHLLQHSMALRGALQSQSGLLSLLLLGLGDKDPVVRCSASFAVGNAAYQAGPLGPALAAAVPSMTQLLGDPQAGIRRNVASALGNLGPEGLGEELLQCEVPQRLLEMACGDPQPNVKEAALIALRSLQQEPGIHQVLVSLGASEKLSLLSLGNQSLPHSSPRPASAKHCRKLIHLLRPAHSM
# Experimental: as §1, §2
# T1 sequence (Q00526 whole entry): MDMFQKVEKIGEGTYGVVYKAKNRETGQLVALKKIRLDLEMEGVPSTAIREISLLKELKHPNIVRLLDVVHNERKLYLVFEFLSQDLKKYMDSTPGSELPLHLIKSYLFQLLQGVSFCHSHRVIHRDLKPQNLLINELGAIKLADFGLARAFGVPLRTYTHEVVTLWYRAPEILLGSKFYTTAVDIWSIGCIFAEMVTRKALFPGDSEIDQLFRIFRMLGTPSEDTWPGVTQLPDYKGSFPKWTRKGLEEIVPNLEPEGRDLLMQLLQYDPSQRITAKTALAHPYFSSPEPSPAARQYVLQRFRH
# T3 sequence (P08922 28-2347): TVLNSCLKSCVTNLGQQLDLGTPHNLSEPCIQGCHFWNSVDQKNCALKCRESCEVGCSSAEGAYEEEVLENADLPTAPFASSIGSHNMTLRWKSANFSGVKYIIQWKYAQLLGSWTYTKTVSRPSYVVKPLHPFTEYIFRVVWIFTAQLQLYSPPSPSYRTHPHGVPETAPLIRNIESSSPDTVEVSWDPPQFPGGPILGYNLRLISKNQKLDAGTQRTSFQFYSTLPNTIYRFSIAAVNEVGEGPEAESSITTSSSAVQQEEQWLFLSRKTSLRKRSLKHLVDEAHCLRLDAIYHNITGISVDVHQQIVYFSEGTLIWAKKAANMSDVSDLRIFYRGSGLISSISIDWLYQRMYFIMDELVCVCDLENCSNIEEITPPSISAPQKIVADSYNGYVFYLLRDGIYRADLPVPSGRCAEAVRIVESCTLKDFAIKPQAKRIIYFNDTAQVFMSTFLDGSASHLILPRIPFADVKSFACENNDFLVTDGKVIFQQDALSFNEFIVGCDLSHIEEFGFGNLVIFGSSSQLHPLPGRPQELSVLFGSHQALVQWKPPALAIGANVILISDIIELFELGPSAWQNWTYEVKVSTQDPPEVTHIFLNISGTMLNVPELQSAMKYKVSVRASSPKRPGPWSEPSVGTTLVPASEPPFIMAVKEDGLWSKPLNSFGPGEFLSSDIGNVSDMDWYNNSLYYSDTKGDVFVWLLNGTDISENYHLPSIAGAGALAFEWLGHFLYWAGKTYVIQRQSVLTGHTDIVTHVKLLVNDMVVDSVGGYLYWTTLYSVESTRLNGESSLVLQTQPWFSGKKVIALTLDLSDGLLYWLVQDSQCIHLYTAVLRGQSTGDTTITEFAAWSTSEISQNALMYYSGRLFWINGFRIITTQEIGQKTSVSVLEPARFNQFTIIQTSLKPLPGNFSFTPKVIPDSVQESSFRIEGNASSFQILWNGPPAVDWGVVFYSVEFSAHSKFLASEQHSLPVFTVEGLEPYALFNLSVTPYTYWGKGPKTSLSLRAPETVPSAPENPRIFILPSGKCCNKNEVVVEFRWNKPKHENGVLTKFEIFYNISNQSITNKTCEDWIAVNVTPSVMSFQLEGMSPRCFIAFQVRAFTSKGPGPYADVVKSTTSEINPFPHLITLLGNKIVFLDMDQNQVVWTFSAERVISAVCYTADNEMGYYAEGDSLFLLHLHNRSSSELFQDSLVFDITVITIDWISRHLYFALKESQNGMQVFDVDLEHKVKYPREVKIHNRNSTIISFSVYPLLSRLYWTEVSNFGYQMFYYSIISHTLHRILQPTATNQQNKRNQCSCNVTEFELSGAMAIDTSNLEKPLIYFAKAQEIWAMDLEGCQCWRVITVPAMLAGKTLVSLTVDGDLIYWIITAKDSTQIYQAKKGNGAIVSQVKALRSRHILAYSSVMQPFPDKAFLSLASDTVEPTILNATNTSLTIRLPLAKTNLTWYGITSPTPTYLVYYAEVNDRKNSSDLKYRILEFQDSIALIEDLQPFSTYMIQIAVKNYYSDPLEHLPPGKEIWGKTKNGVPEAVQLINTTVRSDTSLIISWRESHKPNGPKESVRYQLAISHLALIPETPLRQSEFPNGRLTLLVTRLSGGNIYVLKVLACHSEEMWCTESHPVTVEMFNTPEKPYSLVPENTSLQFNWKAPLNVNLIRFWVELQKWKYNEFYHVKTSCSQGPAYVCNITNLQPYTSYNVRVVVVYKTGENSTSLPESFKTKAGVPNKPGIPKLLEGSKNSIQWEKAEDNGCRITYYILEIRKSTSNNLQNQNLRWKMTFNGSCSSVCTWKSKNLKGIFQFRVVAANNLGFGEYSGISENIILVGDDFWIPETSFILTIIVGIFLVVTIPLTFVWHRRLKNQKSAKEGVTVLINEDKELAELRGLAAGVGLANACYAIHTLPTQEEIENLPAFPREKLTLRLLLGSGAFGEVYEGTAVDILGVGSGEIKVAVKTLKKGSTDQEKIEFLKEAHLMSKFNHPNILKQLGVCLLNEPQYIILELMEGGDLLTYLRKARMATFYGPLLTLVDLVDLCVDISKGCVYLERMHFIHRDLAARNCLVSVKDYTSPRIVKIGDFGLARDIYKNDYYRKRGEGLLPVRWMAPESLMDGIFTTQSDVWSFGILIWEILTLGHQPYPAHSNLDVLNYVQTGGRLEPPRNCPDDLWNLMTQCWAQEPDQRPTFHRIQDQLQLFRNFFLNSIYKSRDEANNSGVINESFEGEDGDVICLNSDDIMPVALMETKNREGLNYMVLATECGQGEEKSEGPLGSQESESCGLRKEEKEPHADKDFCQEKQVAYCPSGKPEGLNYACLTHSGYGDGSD
SMILES,% Competition (CDK3) [%],"inhibition at 10 µM (EPHA3; EPHA3, 10 µM, read-out: % Competition) [%]","inhibition at 10 µM (ROS1; ROS1, 10 µM, read-out: % Competition) [%]","inhibition at 10 µM (STK36; STK36, 10 µM, read-out: % Competition) [%]",inhibition at 10 µM (EPHA3; read-out: % Competition) [%],inhibition at 10 µM (ROS1; read-out: % Competition) [%],"inhibition at 10 µM (STK36; read-out: % Competition, STK36, 10 µM) [%]",Percent Competition (CDK3; compound concentration 10 uM) [%],"inhibition at 10 µM (EPHA3; EPHA3, compound concentration 10 uM, read-out: Percent Competition) [%]","inhibition at 10 µM (ROS1; ROS1, compound concentration 10 uM, read-out: Percent Competition) [%]","inhibition at 10 µM (STK36; STK36, compound concentration 10 uM, read-out: Percent Competition) [%]"
Fc1ccc(-c2c(-c3ccncc3)[nH]c3nccnc23)cc1 [Compound 122],92,85,80,100,,,,,,,
CC(O)CNc1cc(-c2[nH]c3cccnc3c2-c2ccc(F)cc2)ccn1 (stereo not drawn) [Compound 140],<50,,,,< 50,< 50,99 to 100,,,,
Fc1ccc(-c2c(-c3ccncc3)[nH]c3nccnc23)cc1 [RO1155697-000-005],,,,,,,,92,85,80,100
